Experiment [1] relates to RFP-expressing KRAS cell spheroids. As to the kind of experiment: Spheroid spreading assay. The class given is cell-based, human. The following applies: KRAS spheroids within CAF-CDMs produced onto patho stiffness gels; 20 μM U0126 overnight. On the procedure: Red fluorescence protein (RFP)-expressing KRAS cells generated in our laboratory were trypsinized and suspended in spheroid formation media (Irvine Scientific, Santa Ana, Calif., Catalog ID: 91130) and allowed to incubate overnight. Thirty μl drops containing 2.5×10^3 cells were carefully placed on a lid of a sterile petri dish. The dish was filled with 5 mL media and the lid with the “hanging drops” was carefully placed, drops face down, and incubated overnight. Spheroids were removed from the lids, one by one, placed onto the diverse substrates or CDMs, and allowed to adhere for 2 hours. Subsequently, the spheroid formation media was diluted with regular pancreatic epithelial growth media (see above). Following a 48-hour incubation, cell spreading was visualized using an inverted fluorescence microscope equipped with epifluorescent image acquisition capabilities. Data were normalized to the initial size of each spheroid at time 0 hour. When indicated, spheroids were treated overnight with 20 μM of the MEK1/2 inhibitor U0126 from Calbiochem or DMSO, while siRNA transfection. The images were processed using MetaMorph 7.8.1.0 software (Molecular Devices, Downingtown, Pa.). A minimum of 5 spheres per condition were analyzed in at least three independent experiments.

A further experiment relates to pERK1/2. The following applies: KRAS cells within CAF-CDMs produced onto patho stiffness gels; 20 μM U0126 overnight; fractionated cell lysates. On the procedure: (§1) At the end of the experiments, KRAS cells were lysed with cell lysis buffer from Cell Signaling Technology (Danvers, Mass.) supplemented with Pierce™ Phosphatase and protease Inhibitor Mini Tablets (Cat Nos. 88667 and 88665, respectively) from Thermo Fisher Scientific (Waltham, Mass.). Proteins were SDS-PAGE dissolved and transferred to PVDF membranes. Blots were incubated with the following primary antibodies: Rabbit anti-human Phospho-p44/42 ERK1/2 (Thr^202/Tyr^204)(Cat No. 4370) and rabbit anti-human total-p44/42 ERK1/2 (Cat No. 9102) obtained from Cell Signaling Technology (Danvers, Mass.). Anti-phospho-p90RSK1 (Ser^380) (Cat No. 04-418) and anti-human glyceraldehyde 3-phosphate dehydrogenase (GAPDH) (Cat No. MAB374) obtained from Millipore (Billerica, Mass.). Horseradish peroxidase-conjugated, anti-species matched, secondary antibodies were obtained from Sigma Aldrich (St. Louis, Mo.). Protein bands were visualized using the Protein Simple FluorChemE System, (San Jose, Calif.). Nuclear levels of pERK1/2 were assessed using the Subcellular Protein Fractionation Kit (Thermo Scientific, Waltham, Mass.). Isolation of nuclear versus whole cell fractions was carried out according to the manufacturer's instructions.

For the next experiment, the system named is phospho-p90RSK. The following applies: KRAS cells within CAF-CDMs produced onto patho gels; 20 μM U0126 overnight. On the procedure: as §1

Structures are written as SMILES.

As for `N#CC(=C(N)Sc1ccccc1N)C(C#N)=C(N)Sc1ccccc1N` [U0126, 1,4-diamino-2,3-dicyano-1,4-bis[2-aminophenylthio] butadiene], in experiment [1], the “KRAS spheroid area spread” value is listed as “significant reduction in KRAS spheroid spread”. For the same molecule, the “nuclear levels of pERK1/2” value with pERK1/2 is “significant loss of pERK1/2 at nuclear locations”. In addition, the “phosphorylation levels of p90 ribosomal S6 kinase (pho-p90RSK)” value with phospho-p90RSK is listed as “downregulated”.

The record behind these values is patent publication US20190249215A1, “Three-Dimensional Cell-Derived Extracellular Matrix/Gel Systems” (Institute For Cancer Research d/b/a The Research Institute …, priority 2018, published 2019).
